Reference: patent US20250230193A1, “CYCLIC COMPOUND HAVING SELECTIVE KRAS INHIBITORY EFFECT ON HRAS AND NRAS” (CHUGAI SEIYAKU KABUSHIKI KAISHA, priority 2022, published 2025)
Where a SMILES comes first, the peptide text is derived from it. Bridges are numbered along the chain shown (N, C = ends). [ ]: non-standard residue; d: D form. The star is where a group is joined. hPhe(3-Cl-4-CF3) = N[C@@H](CCc1ccc(C(F)(F)F)c(Cl)c1)C(=O)O; NPrPhe(4-CF3) = CCCN[C@@H](Cc1ccc(C(F)(F)F)cc1)C(=O)O; NMeGly(cPent) = CN[C@H](C(=O)O)C1CCCC1; NMeD = CN[C@@H](CC(=O)O)C(=O)O; hPip = O=C(O)[C@@H]1CCCCCN1; Morpholide = C1CN(*)CCO1; Ac5c = NC1(C(=O)O)CCCC1; Aze = O=C(O)[C@@H]1CCN1; Sar = CNCC(=O)O

Experiments:
[1] = molecular target: GDP-bound HRAS wild-type protein (Homo sapiens, UniProt P01112); test: Binding to HRAS by surface plasmon resonance (SPR), Single Cycle Kinetics; conditions: SPR; for HRAS/KRAS (ratio of KD value with respect to HRAS to KD value with respect to KRAS): GDP-bound HRAS wild-type vs GDP-bound KRAS wild-type
[2] = molecular target: GDP-bound NRAS wild-type protein (Homo sapiens, UniProt P01111); test: Binding to NRAS by surface plasmon resonance (SPR), Single Cycle Kinetics; conditions: SPR; for NRAS/KRAS (ratio of KD value with respect to NRAS to KD value with respect to KRAS): GDP-bound NRAS wild-type vs GDP-bound KRAS wild-type
[3] = KD ratio HRAS/KRAS, GDP-bound wild-type proteins
[4] = KD ratio NRAS/KRAS, GDP-bound wild-type proteins

Sequence of GDP-bound NRAS wild-type protein (P01111 whole entry): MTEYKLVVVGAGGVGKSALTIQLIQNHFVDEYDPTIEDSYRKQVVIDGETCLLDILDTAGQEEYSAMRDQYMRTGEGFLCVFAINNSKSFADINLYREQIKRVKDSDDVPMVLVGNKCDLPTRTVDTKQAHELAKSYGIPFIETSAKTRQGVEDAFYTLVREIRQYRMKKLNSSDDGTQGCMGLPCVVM
Sequence of GDP-bound HRAS wild-type protein (P01112 whole entry): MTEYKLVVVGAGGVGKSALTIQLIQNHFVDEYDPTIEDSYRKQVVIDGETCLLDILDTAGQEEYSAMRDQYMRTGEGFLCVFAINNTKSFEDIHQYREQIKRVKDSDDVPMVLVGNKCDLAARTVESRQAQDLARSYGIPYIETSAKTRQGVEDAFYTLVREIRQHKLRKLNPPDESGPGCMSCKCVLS

CCCN1C(=O)CN(C)C(=O)[C@@H]2CCN2C(=O)[C@H]([C@@H](C)CC)NC(=O)[C@@H]2CCCCCN2C(=O)C[C@@H](C(=O)N2CCOCC2)N(C)C(=O)[C@H](C2CCCC2)N(C)C(=O)C2(CCCC2)NC(=O)[C@@H]2CCCN2C(=O)[C@H](CCc2ccc(C(F)(F)F)c(Cl)c2)NC(=O)CN(C)C(=O)[C@@H]1Cc1ccc(C(F)(F)F)cc1 [PP0302] ([hPip]I[Aze][Sar][NPrPhe(4-CF3)][Sar][hPhe(3-Cl-4-CF3)]P[Ac5c][NMeGly(cPent)][NMeD]-Morpholide; lactam N-11)
HRAS/KRAS (ratio of KD for GDP-bound HRAS wild-type to KD for KRAS) ([1]; KD ratio HRAS/KRAS): C (A compound having a KD ratio of 0.1 or more and less than 3 is denoted as C) | NRAS/KRAS (ratio of KD for GDP-bound NRAS wild-type to KD for KRAS) ([2]; KD ratio NRAS/KRAS): B (a compound having 3 or more and less than 10 is denoted as B)

CCO[C@@H]1C[C@H]2C(=O)NC3(CCC3)C(=O)N(C)[C@@H](C3CCCC3)C(=O)N(C)[C@H](C(=O)N(C)C)CC(=O)N(C)[C@H]3CCCCCc4ccc(cc4)C[C@@H](C(=O)N(C)CC(=O)N[C@@H](CCc4cc(F)c(C(F)(F)F)c(F)c4)C(=O)N2C1)N1CC/C=C\C[C@@H](C1=O)N(C)C(=O)CN(C)C(=O)[C@H]([C@@H](C)CC)NC3=O [PP2261]
HRAS/KRAS (ratio of KD value with respect to HRAS to KD value with respect to KRAS) [1]: A (a compound having 10 or more and less than 20 is denoted as A) | NRAS/KRAS (ratio of KD value with respect to NRAS to KD value with respect to KRAS) [2]: A (a compound having 10 or more and less than 20 is denoted as A)

CCO[C@@H]1C[C@H]2C(=O)NC3(CC=CC3)C(=O)N(C)[C@@H](C3CCCC3)C(=O)N(C)[C@H](C(=O)N3CCOCC3)CC(=O)N(C)[C@@H](COC)C(=O)N[C@@H]([C@@H](C)CC)C(=O)N(C)CC(=O)N(C)[C@H]3CCCCCN(C3=O)[C@@H](Cc3ccc(C(F)(F)F)cc3)C(=O)N(C)CC(=O)N[C@@H](CCc3cc(F)c(C(F)(F)F)c(F)c3)C(=O)N2C1 [PP0842]
HRAS/KRAS (ratio of KD value with respect to HRAS to KD value with respect to KRAS) ([1]; KD ratio): B (a compound having 3 or more and less than 10 is denoted as B) | NRAS/KRAS (ratio of KD value with respect to NRAS to KD value with respect to KRAS) ([2]; KD ratio): B (a compound having 3 or more and less than 10 is denoted as B)

CC[C@H](C)[C@@H]1NC(=O)[C@@H]2CCCCc3ccc(cc3)C[C@@H](C(=O)N(C)CC(=O)N[C@@H](CCc3ccc(C(F)(F)F)c(OC)c3)C(=O)N3CC4(CC4)C[C@H]3C(=O)NC3(CC(C)(C)C3)C(=O)N(C)[C@@H](C3CCCC3)C(=O)N(C)[C@H](C(=O)N(C)CC)CC(=O)N2C)N2CC/C=C\C[C@@H](C2=O)N(C)C(=O)CN(C)C1=O [PP3081]
HRAS/KRAS (ratio of KD value with respect to GDP-bound HRAS wild-type protein to KD value with respect to KRAS) [1, 3]: B (a compound having 3 or more and less than 10 is denoted as B) | NRAS/KRAS (ratio of KD value with respect to GDP-bound NRAS wild-type protein to KD value with respect to KRAS) [2, 4]: A (a compound having 10 or more and less than 20 is denoted as A)

CCC[C@H]1C(=O)N[C@@H]([C@@H](C)CC)C(=O)N2CCC[C@H]2C(=O)N(C)[C@H]2C/C=C\CCN(C2=O)[C@@H](CC2CCC(F)(F)CC2)C(=O)N(C)CC(=O)N[C@@H](CCc2ccc(C(F)(F)F)c(OC)c2)C(=O)N2C[C@H](OCC)C[C@H]2C(=O)N(C)C2(CCC2)C(=O)N(C)[C@@H](C(CC)CC)C(=O)N(C)[C@H](C(=O)N(C)C)CC(=O)N1C [PP2353]
HRAS/KRAS (ratio of KD value with respect to HRAS to KD value with respect to KRAS) [1]: A (a compound having 10 or more and less than 20 is denoted as A) | NRAS/KRAS (ratio of KD value with respect to NRAS to KD value with respect to KRAS) [2]: A (a compound having 10 or more and less than 20 is denoted as A)

CC[C@H](C)[C@@H]1NC(=O)[C@H](CC(C)C)N(C)C(=O)C[C@@H](C(=O)N(C)C)N(C)C(=O)[C@H](C2CCCC2)N(C)C(=O)C2(CCCC2)NC(=O)[C@@H]2CCCN2C(=O)[C@H](CCc2cc(F)c(C(F)(F)F)c(F)c2)NC(=O)CN(C)C(=O)[C@H](Cc2ccc(C(F)(F)F)cc2)N2CCCCC[C@@H](C2=O)N(C)C(=O)CN(CC)C1=O [PP0514]
HRAS/KRAS (ratio of KD value with respect to GDP-bound HRAS wild-type protein to KD value with respect to KRAS) ([1]; KD ratio HRAS/KRAS): B (a compound having 3 or more and less than 10 is denoted as B) | NRAS/KRAS (ratio of KD value with respect to GDP-bound NRAS wild-type protein to KD value with respect to KRAS) ([2]; KD ratio NRAS/KRAS): B (a compound having 3 or more and less than 10 is denoted as B)

C#CC[C@H]1C(=O)N[C@@H]([C@@H](C)CC)C(=O)N(C)CC(=O)N(C)[C@H]2C/C=C\CCN(C2=O)[C@@H](Cc2ccc(C(F)(F)F)cc2)C(=O)N(C)CC(=O)N[C@@H](CCc2ccc(C(F)(F)F)c(Cl)c2)C(=O)N2CC3(CC3)C[C@H]2C(=O)NC2(CC(C)(C)C2)C(=O)N(C)[C@@H](C2CCCC2)C(=O)N(C)[C@H](C(=O)N(C)C)CC(=O)N1C [PP2980]
HRAS/KRAS (ratio of KD value with respect to GDP-bound HRAS wild-type protein to KD value with respect to KRAS) [1, 3]: B (a compound having 3 or more and less than 10 is denoted as B) | NRAS/KRAS (ratio of KD value with respect to GDP-bound NRAS wild-type protein to KD value with respect to KRAS) [2, 4]: A (a compound having 10 or more and less than 20 is denoted as A)
